Assay results from US6288113A, “Angiogenesis promoters” (Welfide Corporation, priority 1997, dated 2001).

Tests used:
Format in all cases: in vivo
[1] = test system: angiogenesis by b-FGF; assay: Rat sponge model with b-FGF, observation of photograph of sponge surface (Experimental Example 2)
Description: (§1) In the same manner as in Experimental Example 1, as the promoter of the present invention, the AS-containing lipid emulsion of Example 4 was diluted with a 10% lipid emulsion (Intralipos®, manufactured by the Green Cross Corporation, produced and sold by Yoshitomi Pharmaceutical Industries, Ltd. since Apr. 1, 1998) and used. For the vehicle administration control group, the above-mentioned 10% lipid emulsion alone was used.
(§2) Using a hemostatic gelatin sponge infiltrated with physiological saline containing 0.1% BSA (bovine serum albumin) or b-FGF solution (b-FGF 1 mg/ml solution, 100 μl, diluted 10-fold with physiological saline containing 0.1% BSA), and in the same manner as in Experimental Example 1, rat sponge models (6-8 animals per group) were prepared. The vehicle and AS were bolus administered via the tail vein once a day at the volume of 1 ml/kg from the day of sponge implanting to day 4. After 4 days from the implanting, the surface of the sponge was photographed, and the amount of the hemoglobin in the sponge was calculated in the same manner as in Experimental Example 1.

[2] = test system: angiogenesis by b-FGF; assay: Rat sponge model with b-FGF, hemoglobin content of sponge (Experimental Example 2); details: for Hemoglobin in sponge at 4 days after implanting: mean ± standard error
Description: as §1, §2
For the evaluation of the angiogenic effect, a multiple comparison test (group 1 versus groups 2, 3) by Dunnett method was performed to examine significant difference, using the vehicle alone administration group (BSA-containing physiological saline in sponge +10% lipid emulsion intravenous injection) as a control. For the evaluation of the relationship between AS and b-FGF, an unpaired t-test (group 2 versus group 3) was performed using the b-FGF alone administration group as a control to examine significant difference. The significance was ascribed at less than 5% risk rate.

[3] = test system: angiogenesis; assay: Rat sponge model, observation of photograph of sponge surface (Experimental Example 1); details: AS administration group; after 4 days; visual observation
Description: as §1, with “As” for “In the same manner as in Experimental Example 1, as”, “April” for “Apr.”
(§3) Rats were anesthetized and the dorsal median line was incised for about 1 cm and an air pocket was made subcutaneously at about 2.5 cm toward the tail side with a Kocher clamp. A hemostatic gelatin sponge (Spongel®, 1.0×1.0×0.5 cm; manufactured by Yamanouchi Pharmaceutical Co., Ltd.) infiltrated with physiological saline was implanted therein to prepare rat sponge models.
The incisive region was sutured, antisepticized and intramulscular injection of an antibiotic was given, after which the rats were returned to the breeding cages. Each preparation was bolus administered via the tail vein once a day from the day of sponge implanting to day 4. After 4 days from the implanting, 8 rats per group were sacrificed. […] Hemoglobin in the extract (100 μl) was quantitated using an assay kit (hemoglobin B-TESTWAKO; manufactured by Wako Pure Chemical Industries, Ltd.). The amount of the hemoglobin in the sponge was calculated and used as the index of angiogenesis.

[4] = test system: angiogenesis; assay: Rat sponge model, hemoglobin content of sponge (Experimental Example 1)
Description: as §1, with “As” for “In the same manner as in Experimental Example 1, as”, “April” for “Apr.”
as §3
The incisive region was sutured, antisepticized and intramulscular injection of an antibiotic was given, after which the rats were returned to the breeding cages. Each preparation was bolus administered via the tail vein once a day from the day of sponge implanting to day 4. After 4 days from the implanting, 8 rats per group were sacrificed. The back was opened, and the surrounding tissue was removed trying not to damage the implanted sponge and the surface of the sponge was photographed. All the sponges were taken out and a 0.1M aqueous ammonia (2 ml) was added. The sponges were stood for 4 hr to extract hemoglobin in the sponge. Hemoglobin in the extract (100 μl) was quantitated using an assay kit (hemoglobin B-TESTWAKO; manufactured by Wako Pure Chemical Industries, Ltd.). The amount of the hemoglobin in the sponge was calculated and used as the index of angiogenesis.
For the evaluation of the angiogenic effect, a multiple comparison test by Dunnett method was performed to examine significant difference, using the vehicle administration group as a control. The significance was ascribed at less than 5% risk rate.

| Compound | blood vessels on sponge surface (FIG. 4) ([1]; b-FGF administration group (group 2)) | hemoglobin content of sponge ([2]; b-FGF alone administration group, after 4 days, result in words) | Hemoglobin in sponge at 4 days after implanting ([2]; group 2: b-FGF 1 μg/sponge, 10% lipid emulsion i.v. 1 ml/kg, n 8, vehicle alone 6.5 ± 0.7) [mg/sponge] | blood vessels on sponge surface (FIG. 2) [3] | blood vessels on sponge surface (FIG. 5) ([1]; AS and b-FGF co-administration group (group 3)) | angiogenesis promoting effect by b-FGF ([2]; AS and b-FGF co-administered, summary) | hemoglobin content of sponge as compared with the b-FGF alone administration group ([2]; AS and b-FGF co-administration group, result in words) | Hemoglobin in sponge at 4 days after implanting ([2]; group 3: AS 3 μg/kg i.v. with b-FGF 1 μg/sponge, n 7, P < 0.05 vs b-FGF alone (unpaired t-test)) [mg/sponge] | Hemoglobin in sponge at 4 days after implanting ([4]; AS 3 μg/kg i.v. bolus via tail vein once a day to day 4, mean ± standard error, P < 0.05 vs vehicle 1.5 ± 0.9 (Dunnett)) [mg/sponge] | hemoglobin content compared with the vehicle administration group ([4]; AS 3 μg/kg i.v. bolus, consecutive, result in words) | promotion of angiogenesis ([4]; summary of hemoglobin content and photograph observation, Experimental Example 1) |
| --- | --- | --- | --- | --- | --- | --- | --- | --- | --- | --- | --- |
| b-FGF: growth factor, basic fibloblast growth factor | a number of blood vessels were observed on the surface of the sponge, showing formation of a blood vessel network | increased | 11.8 ± 0.9 | – | – | – | – | – | – | – | – |
| CCCCC[C@H](O)/C=C/[C@@H]1C(CCCCCCC(=O)OCCCC)=C(OC(=O)CCC)C[C@H]1O [AS, butyl 9-butyryloxy-11α,15S-dihydroxyprosta-8,13E-dien-1-oate] | – | – | – | a noticeable blood vessel network that allows visual observation was found, showing superior angiogenesis | more noticeable formation of a blood vessel network was observed, with larger blood vessel diameters | potentiated | increased significantly | 20.7 ± 3.1 | 4.4 ± 0.8 | increased the hemoglobin content compared with the vehicle administration group and a significant difference was observed | promoted angiogenesis |
